Assays:
CYP1A2 = CYP1A2 (Homo sapiens, UniProt P05177); test: Inhibition of CYP1A2 in human liver microsomes using phenacetin as substrate at 10 uM in presence of NADPH regenerating system by LC-MS/MS analysis relative to control; format: ADME, Microsome; settings: probe phenacetin
CYP2C19 = CYP2C19 (Homo sapiens, UniProt P33261); test: Inhibition of CYP2C19 in human liver microsomes using S-mephenytoin as substrate at 10 uM in presence of NADPH regenerating system by LC-MS/MS analysis relative to control; format: ADME, Microsome; settings: probe S-mephenytoin
[1] = biological target: Phosphatidylinositol 4,5-bisphosphate 3-kinase catalytic subunit alpha isoform (Homo sapiens, UniProt P42336); test: Inhibition of PI3Kalpha (unknown origin) using PIP2 as substrate incubated for 1 hrs in presence of ATP by ADP-Glo kinase assay
Histone deacetylase 1 = Histone deacetylase 1 (Homo sapiens, UniProt Q13547); test: Inhibition of HDAC1 (unknown origin) using Boc-Lys(acetyl)-AMC as substrate preincubated for 1 hrs followed by substrate addition and measured after 2 hrs by spectrophotometer based fluorometric assay
Histone deacetylase 2 = Histone deacetylase 2 (Homo sapiens, UniProt Q92769); test: Inhibition of HDAC2 (unknown origin) using Boc-Lys(acetyl)-AMC as substrate preincubated for 1 hrs followed by substrate addition and measured after 2 hrs by spectrophotometer based fluorometric assay
Histone deacetylase 3 = Histone deacetylase 3 (Homo sapiens, UniProt O15379); test: Inhibition of HDAC3 (unknown origin) using Boc-Lys(acetyl)-AMC as substrate preincubated for 1 hrs followed by substrate addition and measured after 2 hrs by spectrophotometer based fluorometric assay
Histone deacetylase 7 = Histone deacetylase 7 (Homo sapiens, UniProt Q8WUI4); test: Inhibition of HDAC7 (unknown origin) using Boc-Lys(acetyl)-AMC as substrate preincubated for 1 hrs followed by substrate addition and measured after 2 hrs by spectrophotometer based fluorometric assay
[2] = biological target: Polyamine deacetylase HDAC10 (Homo sapiens, UniProt Q969S8); test: Inhibition of HDAC10 (unknown origin) using Boc-Lys(acetyl)-AMC as substrate preincubated for 1 hrs followed by substrate addition and measured after 2 hrs by spectrophotometer based fluorometric assay
[3] = biological target: Phosphatidylinositol 4,5-bisphosphate 3-kinase catalytic subunit gamma isoform (Homo sapiens, UniProt P48736); test: Inhibition of PI3Kgamma (unknown origin) using PIP2 as substrate incubated for 1 hrs in presence of ATP by ADP-Glo kinase assay
MDA-MB-231 = test: Antiproliferative activity against human MDA-MB-231 cells incubated for 48 hrs by resazurin dye based fluorescence micro plate reader analysis; format: functional, cell-based; settings: MDA-MB-231, 48 h
JeKo-1 [4] = test: Potency index, ratio of 4-(3-(4-(4-methoxy-6-morpholino-1,3,5-triazin-2-yl)phenyl)urea)-N-(2-ethylamino)ethylbenzamide IC50 to test compound IC50 for antiproliferative activity against human JeKo-1 cells incubated for 48 hrs by resazurin based fluorescence microplate reader analysis; format: functional
CYP2B6 = CYP2B6 (Homo sapiens, UniProt P20813); test: Inhibition of CYP2B6 in human liver microsomes using bupropion as substrate at 10 uM in presence of NADPH regenerating system by LC-MS/MS analysis relative to control; format: ADME, Microsome; settings: probe bupropion
CYP2C9 = CYP2C9 (Homo sapiens, UniProt P11712); test: Inhibition of CYP2C9 in human liver microsomes using diclofenac as substrate at 10 uM in presence of NADPH regenerating system by LC-MS/MS analysis relative to control; format: ADME, Microsome; settings: probe diclofenac
CYP3A4 = CYP3A4 (Homo sapiens, UniProt P08684); test: Inhibition of CYP3A4 in human liver microsomes using bufuralol as substrate at 10 uM in presence of NADPH regenerating system by LC-MS/MS analysis relative to control; format: ADME, Microsome; settings: probe bufuralol
hERG = hERG (Homo sapiens, UniProt Q12809); test: Inhibition of hERG transfected in CHO cells at 30 uM by manual patch-clamp assay relative to control; format: toxicity, cell-based; settings: CHO cells transfected with hERG
[5] = Stability in human liver microsomes assessed as compound remaining at […] preincubated for 5 mins followed by NADPH addition and measured immediately by LC-MS/MS analysis; format: ADME, Microsome; settings: read-out: Stability
[6] = Stability in human liver microsomes assessed as compound remaining at […] preincubated for 5 mins followed by NADPH addition and measured after 5 mins by LC-MS/MS analysis; format: ADME, Microsome; settings: time 10 min, read-out: Stability
[7] = Stability in human liver microsomes assessed as compound remaining at […] preincubated for 5 mins followed by NADPH addition and measured after 15 mins by LC-MS/MS analysis; format: ADME, Microsome; settings: time 20 min, read-out: Stability
[8] = Stability in rat liver microsomes assessed as compound remaining at […] preincubated for 5 mins followed by NADPH addition and measured after 30 mins by LC-MS/MS analysis; format: ADME, Microsome; settings: time 35 min, read-out: Stability
[9] = Stability in mouse liver microsomes assessed as compound remaining at 0.5 mM preincubated for 5 mins followed by NADPH addition and measured immediately by LC-MS/MS analysis; format: ADME, Microsome; settings: read-out: Stability
[10] = Stability in mouse liver microsomes assessed as compound remaining at […] preincubated for 5 mins followed by NADPH addition and measured after 15 mins by LC-MS/MS analysis; format: ADME, Microsome; settings: time 20 min, read-out: Stability
[11] = Stability in human liver microsomes assessed as half-life at […] preincubated for 5 mins followed by NADPH addition and measured upto 45 mins by LC-MS/MS analysis; format: ADME, Microsome; settings: time < 50 min
[12] = AUC (0 to t) in ICR mouse at 1 mg/kg, iv measured after 24 hrs by LC-MS/MS analysis; format: ADME, organism-based; settings: in vivo
[13] = Clearance in ICR mouse at 1 mg/kg, iv measured after 24 hrs by LC-MS/MS analysis; format: ADME, organism-based; settings: in vivo
JeKo-1 [14] = test: Induction of apoptosis in human JeKo-1 cells assessed as viable cells at 0.25 uM incubated for 48 hrs by Annexin-V/FITC and PI staining based flow cytometric analysis (reference value: 94.1%); format: functional; settings: read-out: Activity
JeKo-1 [15] = test: Induction of apoptosis in human JeKo-1 cells assessed as early apoptotic cells at 0.25 uM incubated for 48 hrs by Annexin-V/FITC and PI staining based flow cytometric analysis (reference value: […]); format: functional
JeKo-1 [16] = test: Induction of apoptosis in human JeKo-1 cells assessed as late apoptotic cells at 0.25 uM incubated for 48 hrs by Annexin-V/FITC and PI staining based flow cytometric analysis (reference value: 3.66%); format: functional
JeKo-1 [17] = test: Induction of apoptosis in human JeKo-1 cells assessed as early apoptotic cells at 0.5 uM incubated for 48 hrs by Annexin-V/FITC and PI staining based flow cytometric analysis (reference value: […]); format: functional
JeKo-1 [18] = test: Induction of apoptosis in human JeKo-1 cells assessed as necrotic cells at 0.5 uM incubated for 48 hrs by Annexin-V/FITC and PI staining based flow cytometric analysis (reference value: 1.05%); format: functional
JeKo-1 [19] = test: Induction of apoptosis in human JeKo-1 cells assessed as necrotic cells at 1 uM incubated for 48 hrs by Annexin-V/FITC and PI staining based flow cytometric analysis (reference value: 1.05%); format: functional

Sequence of CYP3A4 (P08684 whole entry): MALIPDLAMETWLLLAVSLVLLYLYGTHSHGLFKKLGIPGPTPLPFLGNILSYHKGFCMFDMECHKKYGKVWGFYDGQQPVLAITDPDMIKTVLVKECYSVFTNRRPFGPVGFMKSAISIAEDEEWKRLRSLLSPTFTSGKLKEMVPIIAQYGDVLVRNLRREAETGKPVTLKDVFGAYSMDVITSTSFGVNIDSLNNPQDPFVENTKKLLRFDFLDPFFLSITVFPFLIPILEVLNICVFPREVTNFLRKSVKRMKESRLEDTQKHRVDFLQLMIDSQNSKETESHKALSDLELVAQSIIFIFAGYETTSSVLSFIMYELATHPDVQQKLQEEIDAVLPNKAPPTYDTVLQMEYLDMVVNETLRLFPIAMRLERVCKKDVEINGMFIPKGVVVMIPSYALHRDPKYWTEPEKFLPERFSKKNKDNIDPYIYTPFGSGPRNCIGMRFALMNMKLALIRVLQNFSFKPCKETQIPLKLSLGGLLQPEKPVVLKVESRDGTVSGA
Sequence of CYP2C9 (P11712 whole entry): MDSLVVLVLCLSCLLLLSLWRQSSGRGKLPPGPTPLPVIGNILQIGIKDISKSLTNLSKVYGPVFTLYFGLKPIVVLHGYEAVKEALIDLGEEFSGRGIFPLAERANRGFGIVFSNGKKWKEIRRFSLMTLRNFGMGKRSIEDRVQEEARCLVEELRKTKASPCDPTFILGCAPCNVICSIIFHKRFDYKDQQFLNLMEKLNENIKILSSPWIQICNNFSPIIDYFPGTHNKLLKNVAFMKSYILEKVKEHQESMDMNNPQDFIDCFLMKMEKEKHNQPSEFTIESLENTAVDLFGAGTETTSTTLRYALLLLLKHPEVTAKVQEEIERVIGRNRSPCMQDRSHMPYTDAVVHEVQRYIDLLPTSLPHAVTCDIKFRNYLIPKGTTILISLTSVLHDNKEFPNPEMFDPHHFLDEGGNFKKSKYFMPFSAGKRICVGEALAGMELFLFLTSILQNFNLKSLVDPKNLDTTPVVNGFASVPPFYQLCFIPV
Sequence of Histone deacetylase 3 (O15379 whole entry): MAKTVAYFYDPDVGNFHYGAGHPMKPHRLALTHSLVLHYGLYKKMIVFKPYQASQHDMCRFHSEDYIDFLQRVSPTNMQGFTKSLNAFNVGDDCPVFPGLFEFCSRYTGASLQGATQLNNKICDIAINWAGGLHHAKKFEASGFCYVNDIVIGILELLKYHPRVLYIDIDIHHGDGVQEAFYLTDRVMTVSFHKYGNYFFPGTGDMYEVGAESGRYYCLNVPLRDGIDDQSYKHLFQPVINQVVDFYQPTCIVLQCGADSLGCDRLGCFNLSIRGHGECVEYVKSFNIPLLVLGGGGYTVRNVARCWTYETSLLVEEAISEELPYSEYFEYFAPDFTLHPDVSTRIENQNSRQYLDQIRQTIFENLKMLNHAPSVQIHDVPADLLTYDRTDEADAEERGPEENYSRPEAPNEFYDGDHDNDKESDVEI
Sequence of CYP2B6 (P20813 whole entry): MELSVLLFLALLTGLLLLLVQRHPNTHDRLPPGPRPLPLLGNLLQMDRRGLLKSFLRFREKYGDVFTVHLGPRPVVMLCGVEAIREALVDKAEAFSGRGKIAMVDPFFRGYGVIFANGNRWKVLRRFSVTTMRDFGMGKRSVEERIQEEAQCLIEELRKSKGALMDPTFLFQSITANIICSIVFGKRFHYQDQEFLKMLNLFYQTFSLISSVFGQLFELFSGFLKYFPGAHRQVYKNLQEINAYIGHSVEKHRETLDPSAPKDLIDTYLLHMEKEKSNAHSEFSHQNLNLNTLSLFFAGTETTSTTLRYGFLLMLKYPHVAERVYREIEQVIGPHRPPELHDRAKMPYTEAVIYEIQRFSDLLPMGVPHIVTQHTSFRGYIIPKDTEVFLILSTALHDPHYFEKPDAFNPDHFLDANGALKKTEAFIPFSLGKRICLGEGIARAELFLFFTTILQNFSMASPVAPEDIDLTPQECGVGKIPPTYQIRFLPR
Sequence of CYP2C19 (P33261 whole entry, canonical isoform): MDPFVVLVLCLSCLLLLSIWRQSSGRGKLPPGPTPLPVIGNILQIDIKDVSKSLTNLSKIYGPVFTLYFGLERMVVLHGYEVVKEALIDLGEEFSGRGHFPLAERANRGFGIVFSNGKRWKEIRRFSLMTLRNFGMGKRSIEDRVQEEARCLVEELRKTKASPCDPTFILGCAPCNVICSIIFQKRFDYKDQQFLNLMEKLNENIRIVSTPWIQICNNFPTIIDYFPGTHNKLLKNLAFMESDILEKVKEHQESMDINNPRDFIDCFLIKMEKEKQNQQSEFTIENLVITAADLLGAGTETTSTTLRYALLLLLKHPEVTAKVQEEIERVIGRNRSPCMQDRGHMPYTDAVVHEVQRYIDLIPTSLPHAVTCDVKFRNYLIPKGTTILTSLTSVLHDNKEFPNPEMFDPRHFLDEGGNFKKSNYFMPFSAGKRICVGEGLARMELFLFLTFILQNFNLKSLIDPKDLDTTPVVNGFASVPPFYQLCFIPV
Sequence of Histone deacetylase 7 (Q8WUI4 whole entry): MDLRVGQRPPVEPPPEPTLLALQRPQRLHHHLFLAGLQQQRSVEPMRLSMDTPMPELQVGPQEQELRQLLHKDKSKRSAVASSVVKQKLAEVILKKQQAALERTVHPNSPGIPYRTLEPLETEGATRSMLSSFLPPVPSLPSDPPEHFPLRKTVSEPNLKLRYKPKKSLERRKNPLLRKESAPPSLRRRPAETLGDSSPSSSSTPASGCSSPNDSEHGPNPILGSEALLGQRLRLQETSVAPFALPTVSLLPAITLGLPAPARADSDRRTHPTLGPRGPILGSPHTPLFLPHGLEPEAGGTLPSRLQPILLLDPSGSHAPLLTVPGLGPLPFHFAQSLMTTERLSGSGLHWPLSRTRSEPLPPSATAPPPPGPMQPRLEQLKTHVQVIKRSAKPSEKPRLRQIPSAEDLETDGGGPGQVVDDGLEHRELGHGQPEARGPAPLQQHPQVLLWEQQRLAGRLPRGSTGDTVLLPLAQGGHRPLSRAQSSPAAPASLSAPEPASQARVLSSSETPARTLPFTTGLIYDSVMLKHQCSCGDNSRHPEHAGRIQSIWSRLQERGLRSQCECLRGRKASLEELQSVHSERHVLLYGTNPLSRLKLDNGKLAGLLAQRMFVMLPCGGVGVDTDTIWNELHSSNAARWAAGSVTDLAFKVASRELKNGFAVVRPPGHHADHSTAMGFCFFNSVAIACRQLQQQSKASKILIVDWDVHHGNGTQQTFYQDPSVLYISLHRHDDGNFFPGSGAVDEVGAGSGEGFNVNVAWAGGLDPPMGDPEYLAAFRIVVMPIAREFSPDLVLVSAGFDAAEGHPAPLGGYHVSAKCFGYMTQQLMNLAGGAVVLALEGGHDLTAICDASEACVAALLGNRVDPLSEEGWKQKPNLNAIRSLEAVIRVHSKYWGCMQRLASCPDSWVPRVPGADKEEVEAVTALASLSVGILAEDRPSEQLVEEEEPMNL
Sequence of Histone deacetylase 2 (Q92769 whole entry): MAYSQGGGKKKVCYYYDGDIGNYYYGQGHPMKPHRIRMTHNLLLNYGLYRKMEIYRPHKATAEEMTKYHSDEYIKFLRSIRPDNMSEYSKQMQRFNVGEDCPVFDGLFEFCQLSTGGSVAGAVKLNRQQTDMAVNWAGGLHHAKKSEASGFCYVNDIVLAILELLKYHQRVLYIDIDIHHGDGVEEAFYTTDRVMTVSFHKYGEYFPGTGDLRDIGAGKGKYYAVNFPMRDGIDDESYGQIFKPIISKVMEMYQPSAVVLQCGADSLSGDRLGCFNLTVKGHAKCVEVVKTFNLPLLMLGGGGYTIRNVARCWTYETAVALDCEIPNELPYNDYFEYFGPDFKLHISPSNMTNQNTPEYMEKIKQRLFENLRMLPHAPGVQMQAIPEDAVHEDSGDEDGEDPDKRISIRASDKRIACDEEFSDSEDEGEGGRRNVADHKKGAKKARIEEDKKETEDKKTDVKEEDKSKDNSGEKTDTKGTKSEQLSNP
Sequence of Histone deacetylase 1 (Q13547 whole entry): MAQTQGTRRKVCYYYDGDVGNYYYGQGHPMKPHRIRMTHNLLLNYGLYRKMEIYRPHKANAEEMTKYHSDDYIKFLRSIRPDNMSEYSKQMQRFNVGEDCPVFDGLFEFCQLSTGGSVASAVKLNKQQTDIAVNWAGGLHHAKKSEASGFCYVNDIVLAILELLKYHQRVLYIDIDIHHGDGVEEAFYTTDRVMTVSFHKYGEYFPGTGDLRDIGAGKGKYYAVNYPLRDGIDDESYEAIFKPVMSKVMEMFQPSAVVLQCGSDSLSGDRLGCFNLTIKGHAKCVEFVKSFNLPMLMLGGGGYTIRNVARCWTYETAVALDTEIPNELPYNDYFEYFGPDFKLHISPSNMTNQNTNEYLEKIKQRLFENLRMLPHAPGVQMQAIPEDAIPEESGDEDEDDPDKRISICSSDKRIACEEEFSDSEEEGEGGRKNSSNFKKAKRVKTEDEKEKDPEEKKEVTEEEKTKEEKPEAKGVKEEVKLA
Sequence of CYP1A2 (P05177 whole entry): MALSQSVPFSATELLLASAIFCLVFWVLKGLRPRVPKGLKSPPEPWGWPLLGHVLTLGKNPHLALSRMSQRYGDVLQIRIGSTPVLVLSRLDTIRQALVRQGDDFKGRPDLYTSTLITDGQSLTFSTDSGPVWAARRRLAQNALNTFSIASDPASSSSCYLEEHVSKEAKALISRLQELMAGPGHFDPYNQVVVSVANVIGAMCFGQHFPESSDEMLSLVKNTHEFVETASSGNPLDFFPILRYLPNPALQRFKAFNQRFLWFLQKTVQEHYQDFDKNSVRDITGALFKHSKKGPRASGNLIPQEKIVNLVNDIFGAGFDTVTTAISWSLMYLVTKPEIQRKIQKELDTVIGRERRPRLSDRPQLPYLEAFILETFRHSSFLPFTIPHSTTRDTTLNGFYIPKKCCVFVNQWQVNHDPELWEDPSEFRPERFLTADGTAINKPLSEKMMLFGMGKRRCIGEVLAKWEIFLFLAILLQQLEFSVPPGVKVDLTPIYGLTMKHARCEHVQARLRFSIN

inhibition at 10 µM (CYP1A2): 2.52% | inhibition at 10 µM (CYP2C19): 14% | IC50 [1]: 20.3 nM | IC50 (Histone deacetylase 1): 306 nM | IC50 (Histone deacetylase 2): 443 nM | IC50 (Histone deacetylase 3): 24.5 nM | IC50 (Histone deacetylase 7): > 10000 nM | IC50 [2]: > 10000 nM | IC50 [3]: 95.4 nM | IC50 (MDA-MB-231): 1500 nM | inhibition at 10 µM (CYP2B6): 35.6% | inhibition at 10 µM (CYP2C9): 37.4% | inhibition at 10 µM (CYP3A4): 32.5% | remaining at 0 min [5]: 100% | remaining at 5 min [6]: 83.8% | remaining at 0.25 h [7]: 62.6% | remaining at 0.5 h [8]: 46.9% | remaining at 0 min [9]: 100% | remaining at 0.25 h [10]: 65.8% | half-life [11]: 30.9 min | AUC(0-t) at 24 h [12]: 2700 ng·h/mL | clearance [13]: 6.02 mL/min/kg
SMILES: COc1nc(-c2ccc(NC(=O)Nc3ccc(C(=O)NCCCCCC(=O)Nc4ccccc4N)cc3)cc2)nc(N2CCOCC2)n1
Ratio IC50 (JeKo-1 [4]): 2 | inhibition at 30 µM (hERG): 15.2% | viability at 0.25 µM (JeKo-1 [14]): 78.5% | Activity (JeKo-1 [15]): 5.73% | Activity (JeKo-1 [16]): 15.1% | Activity (JeKo-1 [17]): 17.8% | Activity (JeKo-1 [18]): 0.49% | Activity (JeKo-1 [19]): 0.17%

Reference: ChEMBL document CHEMBL5634161, “Discovery of benzamide-based PI3K/HDAC dual inhibitors with marked pro-apoptosis activity in lymphoma cells” (Eur J Med Chem, 2023)
